Test results: patent US12466832B2, “Monohydrate and crystalline forms of 6-[(3S,4S)-4-methyl-1-(pyrimidin-2-ylmethyl)pyrrolidin-3-yl]-3-tetrahydropyran-4-yl-7H-imidazo[1,5-a]pyrazin-8-one” (Cardurion Pharmaceuticals, Inc., priority 2018, dated 2025)
In brackets after ≈: the same amount, converted by molar mass.

Tests used:
Type in all cases: physicochemical
[1] = pH profiling solubility experiments; conditions: 24 hours
Description: Procedure: pH profiling solubility experiments were performed on MH1 and MH2. Solubility was determined in singlicate by suspending sufficient compound in relevant media (1.00 ml) to give a maximum final concentration as shown in the Table 17.
The suspensions were equilibrated at 25° C., on a Heidolph plate shaker set to 750 rpm for 24 hours. Samples were pH adjusted as required using 0.5M/1M HCl and 0.2M NaOH to within 0.1 of the desired pH unit (where possible). The pHs of the saturated solutions were measured (where applicable) and an appearance was recorded. The suspensions were filtered through a glass fibre C filter (particle retention […]) and diluted appropriately. Quantitation was by HPLC with reference to a standard solution of approximately 0.15 mg/ml in DMSO. Different volumes of the standard, diluted and undiluted sample solutions were injected. The solubility was calculated using the peak areas determined by integration of the peak found at the same retention time as the principal peak in the standard injection.

[2] = Stability studies with competitive slurries of the two hydrates; conditions: ambient conditions
Description: Procedure: Saturated solutions of the supplied MH 1 (J08343) were prepared in different solvents/systems (1 ml). The saturated solutions were then filtered and used for competitive slurry experiments.
MH1 and MH2 (ca. 15 mg each) were physically mixed before they were treated with the filtered saturated solutions (300 μL). The samples were stirred at 25° C. for 24 h then filtered, air dried and analysed by XRPD.
The same solvents were used as for samples in water activity experiments with additional IPA/heptane mixtures as this is the current crystallisation solvent. This procedure was also followed for IPA/heptane at 5 and 50° C. (3 days slurrying).
Further experiments were designed to increase the diversity of solvents/systems studied while still investigating the effect of water activity on the form obtained. This was with a view to define a solvent list for Phase 3 (Solvent Selection). Further saturated solutions were prepared as described in the procedure section using MH1 as supplied.

[3] = Gravimetric Vapour Sorption (GVS); conditions: 25° C., 0-90% RH
Description: Sorption isotherms were obtained using a SMS DVS Intrinsic moisture sorption analyzer, controlled by DVS Intrinsic Control software. The sample temperature was maintained at 25° C. by the instrument controls. The humidity was controlled by mixing streams of dry and wet nitrogen, with a total flow rate of 200 ml/min. The relative humidity was measured by a calibrated Rotronic probe (dynamic range of 1.0-100% RH), located near the sample. The weight change, (mass relaxation) of the sample as a function of % RH was constantly monitored by a microbalance (accuracy ±0.005 mg).
Typically, 5-30 mg of sample was placed in a tared mesh stainless steel basket under ambient conditions. The sample was loaded and unloaded at 40% RH and 25° C. (typical room conditions). A moisture sorption isotherm was performed as outlined below (2 scans per complete cycle). The standard isotherm was performed at 25° C. at 10% RH intervals over a 0-90% RH range. Typically, a double cycle (4 scans) was carried out. Data analysis was carried out within Microsoft Excel using the DVS Analysis Suite.
The sample was recovered after completion of the isotherm and re-analyzed by XRPD.

[4] = Solubility repeat at pH 1.2 (reverse addition); conditions: pH 1.2 buffered media, pH 1.2, simulated gastric fluid, thermodynamic from solid, pH maintained at 1.2, reverse addition
Description: Procedure: pH 1.2 buffered media (0.4 ml) was added to two separate 7 ml vials. For each compound, material was added in portions to the pH 1.2 media. After each addition of compound, the vial was vortex mixed and the pH and appearance was recorded. The samples were adjusted to pH 1.2 with 1M HCl to within 0.05 of the desired pH unit. This was repeated until no further material was available (˜400 mg for each form, which would give a maximum concentration of around 1000 mg/ml if no adjustment was required).

Compression studies = test: Compression studies
[5] = Drying investigation of the two hydrates (vacuum oven, XRPD and TGA)
Description: Procedure: MH1 and MH2 were placed in a vacuum oven at 50° C. and RT for 24 h. The samples were then analysed by TGA and XRPD immediately after removal and after 4 hours standing under ambient conditions.

Solubility ([1]; media pH 1.2, 25° C., pH not maintained, final pH 5.02 (MH1-A), 6.63 (MH2-A)): >275 mg/mL | Solubility ([1]; media pH 4.0, 25° C., listed as MH1-B): >106 mg/mL | Solubility ([1]; media pH 6.5, 25° C., listed as MH1-C): >164 mg/mL | Solubility ([1]; media pH 7.5, 25° C., listed as MH1-D): 62 mg/mL (≈ 157 mM) | Relative stability of the forms [2]: most stable form at ambient conditions | Solubility [4]: > 153 mg/mL | Compression studies, form by XRPD (Compression studies): no conversion to the anhydrate | XRPD (T = 0, 50° C.) ([5]; vacuum oven 50° C. 24 h, immediately after removal): Matches MH1 and AH | TGA (T = 0, 50° C.) ([5]; vacuum oven 50° C. 24 h, immediately after removal, lost between 25 and 100° C.): 0.3% w/w lost between | TGA (T = 4 h, 50° C.) ([5]; vacuum oven 50° C. 24 h, then 4 hours ambient, lost between 25 and 100° C.): 2.7% w/w lost between | XRPD (T = 4 h, 50° C.) ([5]; vacuum oven 50° C. 24 h, then 4 hours at ambient conditions): Matches MH1 | XRPD (T = 0, RT) ([5]; vacuum oven RT 24 h, immediately after removal): Matches MH1 and AH | TGA (T = 0, RT) ([5]; vacuum oven RT 24 h, immediately after removal, lost between 25 and 100° C.): 0.3% w/w lost between | TGA (T = 4 h, RT) ([5]; vacuum oven RT 24 h, then 4 hours ambient, lost between 25 and 100° C.): 1.8% w/w lost between | XRPD (T = 4 h, RT) ([5]; vacuum oven RT 24 h, then 4 hours at ambient conditions): Matches MH1
Structure (SMILES): C[C@@H]1CN(Cc2ncccn2)C[C@H]1c1cn2c(C3CCOCC3)ncc2c(=O)[nH]1 [MH1, 6-[(3S,4S)-4-methyl-1-(pyrimidin-2-ylmethyl)pyrrolidin-3-yl]-3-tetrahydropyran-4-yl-7H-imidazo[1,5-a]pyrazin-8-one]
GVS Max uptake [3]: Max uptake of 4.7%, no hysteresis, large step
